From PubChem BioAssay (NCI)
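The compound was tested at five concentrations on cells cultured in 96-well plates, with a 48-hour exposure period. Definition used: TGI = concentration required for complete inhibition of growth.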

Assays:
Experiment in all cases: DTP human tumour cell line panel, 48 h
[1] = test system: 786-0 renal
[2] = test system: A498 renal
[3] = test system: A549 NSCLC
[4] = test system: ACHN renal
[5] = test system: BT-549 breast
[6] = test system: CAKI-1 renal
[7] = test system: CCRF-CEM leukemia
[8] = test system: COLO 205 colon
[9] = test system: DU-145 prostate
[10] = test system: EKVX NSCLC
[11] = test system: HCC-2998 colon
[12] = test system: HCT-116 colon
[13] = test system: HCT-15 colon
[14] = test system: HL-60(TB) leukemia
[15] = test system: HOP-92 NSCLC
[16] = test system: HT29 colon
[17] = test system: IGROV1 ovarian
[18] = test system: K-562 leukemia
[19] = test system: LOX IMVI melanoma
[20] = test system: M14 melanoma
[21] = test system: MALME-3M melanoma
[22] = test system: MCF7 breast
[23] = test system: MDA-MB-231 breast
[24] = test system: MDA-MB-435
[25] = test system: MDA-N
[26] = test system: MOLT-4 leukemia
[27] = test system: NCI-H226 lung
[28] = test system: NCI-H23 lung
[29] = test system: NCI-H460 lung
[30] = test system: NCI-H522 lung
[31] = test system: NCI/ADR-RES ovarian
[32] = test system: OVCAR-4 ovarian
[33] = test system: OVCAR-5 ovarian
[34] = test system: OVCAR-8 ovarian
[35] = test system: PC-3 prostate
[36] = test system: SF-295 CNS
[37] = test system: SF-539 CNS
[38] = test system: SK-MEL-2 melanoma
[39] = test system: SK-MEL-28 melanoma
[40] = test system: SK-MEL-5 melanoma
[41] = test system: SK-OV-3 ovarian
[42] = test system: SN12C renal
[43] = test system: SNB-19 CNS
[44] = test system: SR leukemia
[45] = test system: SW-620 colon
[46] = test system: T-47D breast
[47] = test system: TK-10 renal
[48] = test system: U251 CNS
[49] = test system: UACC-257 melanoma
[50] = test system: UACC-62 melanoma
[51] = test system: UO-31 renal
[52] = test system: HOP-62 NSCLC
[53] = test system: HS 578T breast
[54] = test system: KM12 colon
[55] = test system: OVCAR-3 ovarian
[56] = test system: RPMI-8226 leukemia
[57] = test system: RXF 393 renal
[58] = test system: SF-268 CNS
[59] = test system: SNB-75 CNS

`NC(=O)CC1OC(=O)Cc2cc3c(c(O)c21)C(=O)c1c(O)cccc1C3=O` (stereo not given) gave a TGI [1] greater than 100 µM, a TGI [2] greater than 100 µM and a TGI [3] greater than 100 µM. For the same compound, the TGI [4] was greater than 100 µM, the TGI [5] was greater than 100 µM and the TGI [6] was greater than 100 µM. It also gave a TGI [7] greater than 100 µM, a TGI [8] greater than 100 µM and a TGI [9] greater than 100 µM. For the same compound, the TGI [10] was greater than 100 µM, the TGI [11] was greater than 100 µM and the TGI [12] was greater than 100 µM. For the same compound, the TGI [13] was greater than 100 µM, the TGI [14] was greater than 100 µM and the TGI [15] was greater than 100 µM. For the same compound, the TGI [16] was greater than 100 µM, the TGI [17] was greater than 100 µM and the TGI [18] was greater than 100 µM. For the same compound, the TGI [19] was greater than 100 µM, the TGI [20] was greater than 100 µM and the TGI [21] was greater than 100 µM. For the same compound, the TGI [22] was greater than 100 µM, the TGI [23] was greater than 100 µM and the TGI [24] was greater than 100 µM. The TGI [25] was greater than 100 µM, the TGI [26] was greater than 100 µM and the TGI [27] was greater than 100 µM. For the same compound, the TGI [28] was greater than 100 µM, the TGI [29] was greater than 100 µM and the TGI [30] was greater than 100 µM. The TGI [31] was greater than 100 µM, the TGI [32] was greater than 100 µM and the TGI [33] was greater than 100 µM. For the same compound, the TGI [34] was greater than 100 µM, the TGI [35] was greater than 100 µM and the TGI [36] was greater than 100 µM. It also gave a TGI [37] greater than 100 µM, a TGI [38] greater than 100 µM and a TGI [39] greater than 100 µM. For the same compound, the TGI [40] was greater than 100 µM, the TGI [41] was greater than 100 µM and the TGI [42] was greater than 100 µM. For the same compound, the TGI [43] was greater than 100 µM, the TGI [44] was greater than 100 µM and the TGI [45] was greater than 100 µM. It also gave a TGI [46] greater than 100 µM, a TGI [47] greater than 100 µM and a TGI [48] greater than 100 µM. It also gave a TGI [49] greater than 100 µM, a TGI [50] greater than 100 µM and a TGI [51] greater than 100 µM.
`COC(=O)Nc1nc2ccc(NS(=O)(=O)c3cccs3)cc2[nH]1` showed a TGI [1] greater than 100 µM, a TGI [2] of 91.7 µM and a TGI [3] greater than 100 µM. It also gave a TGI [4] greater than 100 µM, a TGI [5] greater than 100 µM and a TGI [6] greater than 100 µM. It also gave a TGI [7] greater than 100 µM, a TGI [8] greater than 100 µM and a TGI [9] greater than 100 µM. It also gave a TGI [10] of 73.7 µM, a TGI [12] of 47.5 µM and a TGI [13] greater than 100 µM. For the same compound, the TGI [14] was 55.5 µM, the TGI [52] was 82.4 µM and the TGI [15] was 70.4 µM. It also gave a TGI [53] of 36.4 µM, a TGI [16] greater than 100 µM and a TGI [17] of 39.7 µM. The TGI [18] was greater than 100 µM, the TGI [54] was 89.5 µM and the TGI [19] was greater than 100 µM. The TGI [20] was 76 µM, the TGI [21] was 54.7 µM and the TGI [22] was 70.4 µM. The TGI [23] was greater than 100 µM, the TGI [24] was 21.4 µM and the TGI [25] was 16.8 µM. It also gave a TGI [26] of 77.4 µM, a TGI [27] greater than 100 µM and a TGI [28] greater than 100 µM. For the same compound, the TGI [29] was greater than 100 µM, the TGI [30] was 29.9 µM and the TGI [31] was 85.3 µM. It also gave a TGI [55] of 49.2 µM, a TGI [32] greater than 100 µM and a TGI [33] greater than 100 µM. It also gave a TGI [34] greater than 100 µM, a TGI [35] greater than 100 µM and a TGI [56] greater than 100 µM. For the same compound, the TGI [57] was 85.8 µM, the TGI [58] was greater than 100 µM and the TGI [36] was 70.9 µM. It also gave a TGI [37] greater than 100 µM, a TGI [38] greater than 100 µM and a TGI [39] greater than 100 µM. For the same compound, the TGI [40] was greater than 100 µM, the TGI [41] was 90.6 µM and the TGI [42] was greater than 100 µM. For the same compound, the TGI [43] was greater than 100 µM, the TGI [59] was 67.8 µM and the TGI [45] was greater than 100 µM. For the same compound, the TGI [46] was 85.3 µM, the TGI [47] was 68 µM and the TGI [48] was greater than 100 µM. It also gave a TGI [50] greater than 100 µM and a TGI [51] greater than 100 µM.
Work on `Nn1c(CCCCCCCCc2nnc(-c3c(O)ccc4ccccc34)n2N)nnc1-c1c(O)ccc2ccccc12` yielded a TGI [1] greater than 100 µM, a TGI [3] greater than 100 µM and a TGI [4] greater than 100 µM. It also gave a TGI [5] greater than 100 µM, a TGI [6] greater than 100 µM and a TGI [8] greater than 100 µM. The TGI [9] was greater than 100 µM, the TGI [11] was greater than 100 µM and the TGI [12] was greater than 100 µM. The TGI [13] was greater than 100 µM, the TGI [14] was greater than 100 µM and the TGI [52] was greater than 100 µM. It also gave a TGI [15] greater than 100 µM, a TGI [53] greater than 100 µM and a TGI [16] greater than 100 µM. The TGI [17] was greater than 100 µM, the TGI [54] was greater than 100 µM and the TGI [19] was greater than 100 µM. It also gave a TGI [20] greater than 100 µM, a TGI [21] greater than 100 µM and a TGI [22] greater than 100 µM. The TGI [23] was greater than 100 µM, the TGI [24] was greater than 100 µM and the TGI [25] was greater than 100 µM. For the same compound, the TGI [26] was greater than 100 µM, the TGI [27] was greater than 100 µM and the TGI [28] was greater than 100 µM. It also gave a TGI [29] greater than 100 µM, a TGI [30] greater than 100 µM and a TGI [31] greater than 100 µM. For the same compound, the TGI [55] was greater than 100 µM, the TGI [32] was greater than 100 µM and the TGI [33] was greater than 100 µM. The TGI [34] was greater than 100 µM, the TGI [35] was greater than 100 µM and the TGI [56] was greater than 100 µM. For the same compound, the TGI [58] was greater than 100 µM, the TGI [36] was greater than 100 µM and the TGI [37] was greater than 100 µM. For the same compound, the TGI [38] was greater than 100 µM, the TGI [39] was greater than 100 µM and the TGI [40] was greater than 100 µM. It also gave a TGI [41] greater than 100 µM, a TGI [42] greater than 100 µM and a TGI [43] greater than 100 µM. The TGI [59] was greater than 100 µM, the TGI [44] was greater than 100 µM and the TGI [45] was greater than 100 µM. It also gave a TGI [46] greater than 100 µM, a TGI [47] greater than 100 µM and a TGI [48] greater than 100 µM. For the same compound, the TGI [49] was greater than 100 µM, the TGI [50] was greater than 100 µM and the TGI [51] was greater than 100 µM.
`CN1CCC2(CC1)SSC1(CCN(C)CC1)S2` showed a TGI [1] greater than 100 µM, a TGI [3] greater than 100 µM and a TGI [4] greater than 100 µM. It also gave a TGI [5] greater than 100 µM, a TGI [7] greater than 100 µM and a TGI [8] greater than 100 µM. The TGI [12] was greater than 100 µM, the TGI [13] was greater than 100 µM and the TGI [14] was greater than 100 µM. For the same compound, the TGI [52] was greater than 100 µM, the TGI [15] was greater than 100 µM and the TGI [53] was greater than 100 µM. The TGI [16] was greater than 100 µM, the TGI [18] was greater than 100 µM and the TGI [54] was greater than 100 µM. The TGI [19] was greater than 100 µM, the TGI [20] was greater than 100 µM and the TGI [23] was greater than 100 µM. It also gave a TGI [24] greater than 100 µM, a TGI [25] greater than 100 µM and a TGI [26] greater than 100 µM. For the same compound, the TGI [28] was greater than 100 µM, the TGI [29] was greater than 100 µM and the TGI [31] was greater than 100 µM. It also gave a TGI [32] greater than 100 µM, a TGI [33] greater than 100 µM and a TGI [34] greater than 100 µM. It also gave a TGI [35] greater than 100 µM, a TGI [56] greater than 100 µM and a TGI [36] greater than 100 µM. For the same compound, the TGI [37] was greater than 100 µM, the TGI [38] was greater than 100 µM and the TGI [39] was greater than 100 µM. It also gave a TGI [40] greater than 100 µM, a TGI [41] greater than 100 µM and a TGI [42] greater than 100 µM. For the same compound, the TGI [43] was greater than 100 µM, the TGI [59] was greater than 100 µM and the TGI [44] was greater than 100 µM. The TGI [45] was greater than 100 µM, the TGI [48] was greater than 100 µM and the TGI [49] was greater than 100 µM. For the same compound, the TGI [50] was greater than 100 µM and the TGI [51] was greater than 100 µM.
